BindingDB's records for doi:10.3109/14756366.2013.813942 (Istituto di Biostrutture e Bioimmagini-CNR, 2014)
Counter-ions that a name gives are not always drawn.

target: T1, Carbonic anhydrase [110-330] (Coastal plain yellowtops, UniProt P46510); test: Stopped Flow CO2 Hydration Assay; settings: pH 8.3; 20 °C
T1 construct: 110-330
T1 sequence (P46510 whole entry): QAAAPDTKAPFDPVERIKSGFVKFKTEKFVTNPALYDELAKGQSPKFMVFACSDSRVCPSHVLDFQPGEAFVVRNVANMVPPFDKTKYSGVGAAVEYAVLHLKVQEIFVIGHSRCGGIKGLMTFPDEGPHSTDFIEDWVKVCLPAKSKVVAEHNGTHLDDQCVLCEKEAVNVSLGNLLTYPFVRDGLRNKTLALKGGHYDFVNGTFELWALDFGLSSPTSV
Procedure: Inhibition constants of carboxylate inhibitors against F. bidentis CA I were determined by a stopped flow CO2 hydration assay at 20 °C.

SMILES	Ki
CCCC(=O)O	82.3 µM
O=CO	97.5 µM
O=C(O)CC(O)C(=O)O (centres undefined)	92.5 µM
O=C(O)c1ccccc1 [SODIUM BENZOATE]	64.5 µM
O=C(O)CC(O)(CC(=O)O)C(=O)O [SODIUM CITRATE]	41.4 µM
CC(=O)O [sodium acetate]	95.1 µM

The remaining lines, values ahead:

Ki	SMILES
77.5 µM	CCCCC(=O)O
74.1 µM	CC(O)C(=O)O (centres undefined)
91 µM	CCC(=O)O
93 µM	O=C(O)C(=O)O
51.2 µM	O=C(O)c1c(F)c(F)cc(F)c1F [2,3,5,6-F4-Benzoate]
> 10000 µM	CC(=O)C(=O)O [Pyruvate]
73.2 µM	O=C(O)/C=C\C(=O)O [sodium maleate]
100 µM	O=C(O)CC(=O)O [sodium malonate]
